Source: patent publication USRE49080E1, “Glycoside derivatives and uses thereof” (Novartis AG, priority 2009, dated 2022)

Tests used:
[1] = molecular target: human sodium glucose co-transporter 2 (Homo sapiens (Human), UniProt P31639); test: SGLT-2 assay: 14C-AMG uptake in CHO-hSGLT2 or HEK-hSGLT2 cells; type: cell-based; conditions: n = 1-4, cells stably transfected with hSGLT2, read-out: SGLT2 IC50 nM (n = 1-4)
Method: These cell lines transport 14 C-labelled alpha-methyl-glucopyranoside (14 C-AMG, Amersham) into the interior of the cell in sodium-dependent manner.
(§1) The SGLT-2 assay is carried out as follows: CHO-hSGLT2 cells are cultivated in Ham's F12 Medium (BioWhittaker) with 10% foetal calf serum and 250 μg/mL zeocin (Invitrogen), and HEK293-hSGLT2 cells are cultivated in DMEM medium with 10% foetal calf serum and 250 μg/mL zeocin (Invitrogen). The cells are detached from the culture flasks by washing twice with PBS and subsequently treating with trypsin/EDTA. After the addition of cell culture medium the cells are centrifuged, resuspended in culture medium and counted in a Casy cell counter. Then 40,000 cells per well are seeded into a white, 96-well plate coated with poly-D-lysine and incubated overnight at 37° C., 5% CO2. The cells are washed twice with 250 μl of assay buffer (Hanks Balanced Salt Solution, 137 mM NaCl, 5.4 mM KCl, 2.8 mM CaCl2, 1.2 mM MgSO4 and 10 mM HEPES (pH 7.4), 50 μg/mL of gentamycin). 250 μl of assay buffer and 5 μl of test compound are then added to each well and the plate is incubated for a further 15 minutes in the incubator. 5 μl of 10% DMSO are used as the negative control. The reaction is started by adding 5 μl of 14 C-AMG (0.05 μCi) to each well. After 2 hours' incubation at 37° C., 5% CO2, the cells are washed again with 250 μl of PBS […] and then lysed by the addition of 25 μl of 0.1 N NaOH (5 min. at 37° C.). 200 μl of MicroScint20 (Packard) are added to each well and incubation is continued for a further 20 min at 37° C. After this incubation the radioactivity of the 14 C-AMG absorbed is measured in a Topcount (Packard) using a 14 C scintillation program.

human SGLT1 = human SGLT1 (Homo sapiens (Human), UniProt P13866); test: SGLT1 assay: analogous test with hSGLT1 cDNA expressed in CHO-K1 or HEK293 cells; type: cell-based; conditions: n = 1-4; 14C-AMG uptake, cells expressing hSGLT1
Method: as §1
To determine the selectivity with respect to human SGLT1 an analogous test is set up in which the cDNA for hSGLTI (Genbank Ace. No. NM000343) instead of hSGLT2 cDNA is expressed in CHO-K1 or HEK293 cells.

Chain of human sodium glucose co-transporter 2 (P31639 whole entry): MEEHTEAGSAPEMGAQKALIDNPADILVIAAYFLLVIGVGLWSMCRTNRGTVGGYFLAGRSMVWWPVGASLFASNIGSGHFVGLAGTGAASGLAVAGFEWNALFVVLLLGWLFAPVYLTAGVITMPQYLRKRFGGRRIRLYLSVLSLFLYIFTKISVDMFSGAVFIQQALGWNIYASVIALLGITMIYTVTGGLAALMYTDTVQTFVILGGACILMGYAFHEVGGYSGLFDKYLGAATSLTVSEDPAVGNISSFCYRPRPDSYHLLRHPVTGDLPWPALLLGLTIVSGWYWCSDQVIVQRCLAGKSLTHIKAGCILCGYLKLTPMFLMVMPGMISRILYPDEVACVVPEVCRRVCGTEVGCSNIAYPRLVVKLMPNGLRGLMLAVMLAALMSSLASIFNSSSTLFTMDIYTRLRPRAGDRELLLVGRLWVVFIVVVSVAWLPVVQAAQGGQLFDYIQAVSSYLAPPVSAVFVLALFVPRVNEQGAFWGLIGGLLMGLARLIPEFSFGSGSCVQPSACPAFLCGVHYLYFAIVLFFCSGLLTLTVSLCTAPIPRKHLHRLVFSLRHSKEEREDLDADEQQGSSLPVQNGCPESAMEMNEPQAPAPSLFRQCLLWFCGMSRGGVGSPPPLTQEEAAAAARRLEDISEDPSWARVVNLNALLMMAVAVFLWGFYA
Chain of human SGLT1 (P13866 whole entry): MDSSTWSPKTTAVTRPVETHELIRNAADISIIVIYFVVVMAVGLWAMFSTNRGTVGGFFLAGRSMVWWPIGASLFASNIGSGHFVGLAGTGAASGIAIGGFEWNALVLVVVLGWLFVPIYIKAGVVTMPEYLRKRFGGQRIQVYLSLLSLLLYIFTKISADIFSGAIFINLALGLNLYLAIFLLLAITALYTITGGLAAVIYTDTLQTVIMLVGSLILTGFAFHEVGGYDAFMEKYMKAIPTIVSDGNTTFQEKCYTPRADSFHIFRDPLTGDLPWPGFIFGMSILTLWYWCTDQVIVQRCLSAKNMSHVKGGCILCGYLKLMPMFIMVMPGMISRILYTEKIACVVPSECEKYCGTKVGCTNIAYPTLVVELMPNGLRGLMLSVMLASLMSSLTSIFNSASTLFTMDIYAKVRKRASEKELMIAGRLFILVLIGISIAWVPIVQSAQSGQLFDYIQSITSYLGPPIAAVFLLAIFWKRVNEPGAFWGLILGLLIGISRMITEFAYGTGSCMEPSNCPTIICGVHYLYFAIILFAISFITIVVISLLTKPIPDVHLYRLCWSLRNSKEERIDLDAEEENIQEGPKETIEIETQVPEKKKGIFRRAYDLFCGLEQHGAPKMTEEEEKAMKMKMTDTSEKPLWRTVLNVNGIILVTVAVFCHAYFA

SMILES | IC50 [1] [nM] | IC50 (human SGLT1) [nM]
O=C1COc2cc(Cc3cc([C@@H]4O[C@H](CO)[C@@H](O)[C@H](O)[C@H]4O)ccc3Cl)ccc2N1 [Example 42, 7-[2-Chloro-5-((2S,3R,4R,5S,6R)-3,4,5-trihydroxy-6-hydroxymethyl-tetrahydro-pyran-2-yl)-benzyl]-4H-benzo[1,4]oxazin-3-one] | 0.35 | 105
OC[C@H]1O[C@@H](c2ccc(C3CC3)c(Cc3ccc4c(c3)NCCO4)c2)[C@H](O)[C@@H](O)[C@@H]1O [Example 65, (2S,3R,4R,5S,6R)-2-[4-Cyclopropyl-3-(3,4-dihydro-2H-benzo[1,4]oxazin-6-ylmethyl)-phenyl]-6-hydroxymethyl-tetrahydro-pyran-3,4,5-triol] | 2.7 | 170
COc1ccc([C@@H]2O[C@H](CO)[C@@H](O)[C@H](O)[C@H]2O)cc1Cc1ccc2c(c1)CCC1(CCC1)O2 [Example 41, (2S,3R,4R,5S,6R)-2-[4-methoxy-3-(spiro[chromane-2,1′-cyclobutane]-6-ylmethyl)phenyl]-6-(hydroxymethyl)tetrahydropyran-3,4,5-triol] | 16.2 | 1620
CCc1ccc([C@@H]2O[C@H](CO)[C@@H](O)[C@H](O)[C@H]2O)cc1Cc1ccc2c(c1)NCCO2 [Example 66, (2S,3R,4R,5S,6R)-2-[3-(3,4-Dihydro-2H-benzo[1,4]oxazin-6-ylmethyl)-4-ethyl-phenyl]-6-hydroxymethyl-tetrahydro-pyran-3,4,5-triol] | 0.9 | 100
OC[C@H]1O[C@@H](c2ccc(Cl)c(Cc3ccc4c(c3)NCCO4)c2)[C@H](O)[C@@H](O)[C@@H]1O [Example 8, (2S,3R,4R,5S,6R)-2-[4-Chloro-3-(3,4-dihydro-2H-benzo[1,4]oxazin-6-ylmethyl)-phenyl]-6-hydroxymethyl-tetrahydro-pyran-3,4,5-triol] | 0.25 | 725
CC(C)c1ccc([C@@H]2O[C@H](CO)[C@@H](O)[C@H](O)[C@H]2O)cc1Cc1ccc2c(c1)NCCC2 [Example 71, (2R,3S,4R,5R,6S)-2-Hydroxymethyl-6-[4-isopropyl-3-(1,2,3,4-tetrahydro-quinolin-7-ylmethyl)-phenyl]-tetrahydro-pyran-3,4,5-triol] | 1.5 | 19
COc1ccc(CN2CCCc3cc(Cc4cc([C@@H]5O[C@H](CO)[C@@H](O)[C@H](O)[C@H]5O)ccc4Cl)ccc32)cc1 [Example 14, (2S,3R,4R,5S,6R)-2-{4-Chloro-3-[1-(4-methoxy-benzyl)-1,2,3,4-tetrahydro-quinolin-6-ylmethyl]-phenyl}-6-hydroxymethyl-tetrahydro-pyran-3,4,5-triol] | 5.5 | 800
OC[C@H]1O[C@@H](c2ccc(F)c(Cc3ccc4c(c3)NCCO4)c2)[C@H](O)[C@@H](O)[C@@H]1O [Example 24, (2S,3R,4R,5S,6R)-2-[3-(3,4-Dihydro-2H-benzo[1,4]oxazin-6-ylmethyl)-4-fluoro-phenyl]-6-hydroxymethyl-tetrahydro-pyran-3,4,5-triol] | 1.3 | 31000
O=C1CCOc2ccc(Cc3cc([C@@H]4O[C@H](CO)[C@@H](O)[C@H](O)[C@H]4O)ccc3Cl)cc21 [Example 35, 6-[2-Chloro-5-((2S,3R,4R,5S,6R)-3,4,5-trihydroxy-6-hydroxymethyl-tetrahydro-pyran-2-yl)-benzyl]-chroman-4-one] | 9.5 | 1100
